Tests used:
[1] = system: multiple animal models; conditions: oral dosing; cited from earlier work
[2] = system: refractory solid tumors; assay: Antitumor activity by RECIST 1.1; format: in vivo, human; conditions: 30 patients, all dose levels, with capecitabine
[3] = system: patients with refractory solid tumors; assay: Phase I dose escalation of RO4929097 with capecitabine: toxicity / DLT; format: in vivo
[4] = clinical; conditions: human, in vivo; for AUC(0-inf): AUC0→∞
[5] = n=30, worst grade, at least possibly related, with capecitabine

CC(C)(C(=O)NCC(F)(F)C(F)(F)F)C(=O)N[C@@H]1C(=O)Nc2ccccc2-c2ccccc21 [RO4929097]
efficacy maintained post-dosing [1]: up to 90 days
progressive disease as best response, patients [2]: 60%
stable disease as best response, patients ([2]; after three or more cycles): 30%
Anemia, Grade 1 ([3]; human, in vivo): 0 n (%)
Anemia, Grade 2 ([3]; human, in vivo): 2 (7) n (%)
Anemia, Grade 3 ([3]; human, in vivo): 1 (3) n (%)
Anemia, Grade 4 ([3]; human, in vivo): 0 n (%)
Anemia, Overall ([3]; human, in vivo): 3 (10) n (%)
Anorexia, Grade 1 ([3]; human, in vivo): 5 (17) n (%)
Anorexia, Grade 2 ([3]; human, in vivo): 2 (7) n (%)
Anorexia, Grade 3 ([3]; human, in vivo): 0 n (%)
Anorexia, Grade 4 ([3]; human, in vivo): 0 n (%)
Anorexia, Overall ([3]; human, in vivo): 7 (23) n (%)
Chills, Grade 1 ([3]; human, in vivo): 3 (10) n (%)
Chills, Grade 2 ([3]; human, in vivo): 0 n (%)
Chills, Grade 3 ([3]; human, in vivo): 0 n (%)
Chills, Grade 4 ([3]; human, in vivo): 0 n (%)
Chills, Overall ([3]; human, in vivo): 3 (10) n (%)
Diarrhea, Grade 1 ([3]; human, in vivo): 9 (30) n (%)
Diarrhea, Grade 2 ([3]; human, in vivo): 4 (13) n (%)
Diarrhea, Grade 3 ([3]; human, in vivo): 1 (3) n (%)
Diarrhea, Grade 4 ([3]; human, in vivo): 0 n (%)
Diarrhea, Overall ([3]; human, in vivo): 14 (47) n (%)
Dry skin, Grade 1 ([3]; human, in vivo): 5 (17) n (%)
Dry skin, Grade 2 ([3]; human, in vivo): 0 n (%)
Dry skin, Grade 3 ([3]; human, in vivo): 0 n (%)
Dry skin, Grade 4 ([3]; human, in vivo): 0 n (%)
Dry skin, Overall ([3]; human, in vivo): 5 (17) n (%)
Fatigue, Grade 1 ([3]; human, in vivo): 6 (20) n (%)
Fatigue, Grade 2 ([3]; human, in vivo): 8 (27) n (%)
Fatigue, Grade 3 ([3]; human, in vivo): 2 (7) n (%)
Fatigue, Grade 4 ([3]; human, in vivo): 0 n (%)
Fatigue, Overall ([3]; human, in vivo): 16 (53) n (%)
Headache, Grade 1 ([3]; human, in vivo): 9 (30) n (%)
Headache, Grade 2 ([3]; human, in vivo): 0 n (%)
Headache, Grade 3 ([3]; human, in vivo): 0 n (%)
Headache, Grade 4 ([3]; human, in vivo): 0 n (%)
Headache, Overall ([3]; human, in vivo): 9 (30) n (%)
Hypokalemia, Grade 1 ([3]; human, in vivo): 1 (3) n (%)
Hypokalemia, Grade 2 ([3]; human, in vivo): 1 (3) n (%)
Hypokalemia, Grade 3 ([3]; human, in vivo): 2 (7) n (%)
Hypokalemia, Grade 4 ([3]; human, in vivo): 0 n (%)
Hypokalemia, Overall ([3]; human, in vivo): 4 (13) n (%)
Hypophosphatemia, Grade 1 ([3]; human, in vivo): 0 n (%)
Hypophosphatemia, Grade 2 ([3]; human, in vivo): 8 (27) n (%)
Hypophosphatemia, Grade 3 ([3]; human, in vivo): 6 (20) n (%)
Hypophosphatemia, Grade 4 ([3]; human, in vivo): 0 n (%)
Hypophosphatemia, Overall ([3]; human, in vivo): 14 (47) n (%)
Nausea, Grade 1 ([3]; human, in vivo): 17 (57) n (%)
Nausea, Grade 2 ([3]; human, in vivo): 2 (7) n (%)
Nausea, Grade 3 ([3]; human, in vivo): 2 (7) n (%)
Nausea, Grade 4 ([3]; human, in vivo): 0 n (%)
Nausea, Overall ([3]; human, in vivo): 21 (70) n (%)
Pain in legs, Grade 1 ([3]; human, in vivo): 4 (13) n (%)
Pain in legs, Grade 2 ([3]; human, in vivo): 0 n (%)
Pain in legs, Grade 3 ([3]; human, in vivo): 0 n (%)
Pain in legs, Grade 4 ([3]; human, in vivo): 0 n (%)
Pain in legs, Overall ([3]; human, in vivo): 4 (13) n (%)
Palmar-plantar erythrodysesthesia syndrome, Grade 1 ([3]; human, in vivo): 3 (10) n (%)
Palmar-plantar erythrodysesthesia syndrome, Grade 2 ([3]; human, in vivo): 1 (3) n (%)
Palmar-plantar erythrodysesthesia syndrome, Grade 3 ([3]; human, in vivo): 1 (3) n (%)
Palmar-plantar erythrodysesthesia syndrome, Grade 4 ([3]; human, in vivo): 0 n (%)
Palmar-plantar erythrodysesthesia syndrome, Overall ([3]; human, in vivo): 5 (17) n (%)
QTc prolongation, Grade 1 ([3]; human, in vivo): 5 (17) n (%)
QTc prolongation, Grade 2 ([3]; human, in vivo): 1 (3) n (%)
QTc prolongation, Grade 3 ([3]; human, in vivo): 0 n (%)
QTc prolongation, Grade 4 ([3]; human, in vivo): 0 n (%)
QTc prolongation, Overall ([3]; human, in vivo): 6 (20) n (%)
Taste alteration, Grade 1 ([3]; human, in vivo): 5 (17) n (%)
Taste alteration, Grade 2 ([3]; human, in vivo): 0 n (%)
Taste alteration, Grade 3 ([3]; human, in vivo): 0 n (%)
Taste alteration, Grade 4 ([3]; human, in vivo): 0 n (%)
Taste alteration, Overall ([3]; human, in vivo): 5 (17) n (%)
Vomiting, Grade 1 ([3]; human, in vivo): 11 (37) n (%)
Vomiting, Grade 2 ([3]; human, in vivo): 1 (3) n (%)
Vomiting, Grade 3 ([3]; human, in vivo): 2 (7) n (%)
Vomiting, Grade 4 ([3]; human, in vivo): 0 n (%)
Vomiting, Overall ([3]; human, in vivo): 14 (47) n (%)
Weight loss, Grade 1 ([3]; human, in vivo): 3 (10) n (%)
Weight loss, Grade 2 ([3]; human, in vivo): 1 (3) n (%)
Weight loss, Grade 3 ([3]; human, in vivo): 0 n (%)
Weight loss, Grade 4 ([3]; human, in vivo): 0 n (%)
Weight loss, Overall ([3]; human, in vivo): 4 (13) n (%)
diarrhea, patients ([3]; human, in vivo): 47%
fatigue, patients ([3]; human, in vivo): 53%
hypophosphatemia, patients ([3]; human, in vivo): 47%
nausea, patients ([3]; human, in vivo): 70%
vomiting, patients ([3]; human, in vivo): 47%
Anemia, Grade 5 [3, 5]: 0 n (%)
Anorexia, Grade 5 [3, 5]: 0 n (%)
Chills, Grade 5 [3, 5]: 0 n (%)
Diarrhea, Grade 5 [3, 5]: 0 n (%)
Dry skin, Grade 5 [3, 5]: 0 n (%)
Fatigue, Grade 5 [3, 5]: 0 n (%)
Headache, Grade 5 [3, 5]: 0 n (%)
Hypokalemia, Grade 5 [3, 5]: 0 n (%)
Hypophosphatemia, Grade 5 [3, 5]: 0 n (%)
Nausea, Grade 5 [3, 5]: 0 n (%)
Pain in legs, Grade 5 [3, 5]: 0 n (%)
Palmar-plantar erythrodysesthesia syndrome, Grade 5 [3, 5]: 0 n (%)
QTc prolongation, Grade 5 [3, 5]: 0 n (%)
Taste alteration, Grade 5 [3, 5]: 0 n (%)
Vomiting, Grade 5 [3, 5]: 0 n (%)
Weight loss, Grade 5 [3, 5]: 0 n (%)
Cmax ([4]; 20 mg): 358.3 ng/mL
Half Life ([4]; 20 mg): 30.7 h
Cmax ([4]; 20 mg, Cmax): 646 ng/mL
half-life ([4]; 20 mg): 36.2 h
AUC0→∞ ([4]; 30 mg): 16609.4 ng·h/mL
Cmax ([4]; 30 mg): 668.5 ng/mL
Vd ([4]; 30 mg): 88.7 L/h
AUC(0-inf) ([4]; 30 mg): 25900 ng·h/mL
Cmax ([4]; 30 mg, Cmax): 656 ng/mL
Vd ([4]; 30 mg, Vd): 53 L
Half Life ([4]; 45 mg): 9.5 h
Vd ([4]; 45 mg): 118.9 L/h
half-life ([4]; 45 mg): 17.8 h
Vd ([4]; 45 mg, Vd): 63.3 L
AUC0→∞ ([4]; 68 mg): 18050.7 ng·h/mL
Cmax ([4]; 68 mg): 1011.7 ng/mL
Half Life ([4]; 68 mg): 16.0 h
AUC(0-inf) ([4]; 68 mg): 34400 ng·h/mL
Cmax ([4]; 68 mg, Cmax): 1640 ng/mL
half-life ([4]; 68 mg): 15.9 h
AUC0→∞ ([4]; 100 mg): 32748.6 ng·h/mL
Cl ([4]; 100 mg): 3953.9 mL/h
Cmax ([4]; 100 mg): 1473.2 ng/mL
Half Life ([4]; 100 mg): 19.8 h
AUC(0-inf) ([4]; 100 mg): 51900 ng·h/mL
clearance ([4]; 100 mg, Cl): 43.3 mL/min
Cmax ([4]; 100 mg, Cmax): 2390 ng/mL
half-life ([4]; 100 mg): 13.4 h
Vd ([4]; 150 mg): 168.2 L/h
Vd ([4]; 150 mg, Vd): 154 L

Source: publication PMC4297251 (Investigational new drugs, 2014)
